“And” between values parts separate entries of the source, which are not always exact repeats. Equal values may be shown once. Toxic doses and inconclusive results are not listed. Rule as the data show it: active = T/C of 150% or more; inactive = T/C below 125%.
System: L1210 leukemia ip in BDF1 mice, survival T/C
Assay: NCI In Vivo Anticancer Drug Screen. Data for tumor model L1210 Leukemia (intraperitoneal) in B6D2F1 (BDF1) mice
Details: endpoint: mean survival time, higher = longer survival
Method in brief: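 Read-out is survival time, reported as the treated-group measurement over the vehicle-control measurement.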

[1] = dose: 100.0 mg/kg/injection, schedule: Q04DX002 (ip), vehicle: Klucel (hydroxypropylcellulose) (HPC)
[2] = dose: 200.0 mg/kg/injection, schedule: Q04DX002 (ip), vehicle: Klucel (hydroxypropylcellulose) (HPC)
[3] = dose: 400.0 mg/kg/injection, schedule: Q04DX002 (ip), vehicle: Klucel (hydroxypropylcellulose) (HPC)
[4] = dose: 100.0 mg/kg/injection, schedule: Q01DX009 (ip), vehicle: saline with Tween-80
[5] = dose: 100.0 mg/kg/injection, schedule: Q04DX003 (ip), vehicle: saline with Tween-80
[6] = dose: 200.0 mg/kg/injection, schedule: Q01DX009 (ip), vehicle: saline with Tween-80
[7] = dose: 400.0 mg/kg/injection, schedule: Q01DX009 (ip), vehicle: saline with Tween-80
[8] = dose: 100.0 mg/kg/injection, schedule: Q01DX001 (ip), vehicle: carboxymethylcellulose (CMC)
[9] = dose: 200.0 mg/kg/injection, schedule: Q01DX001 (ip), vehicle: carboxymethylcellulose (CMC)
[10] = dose: 400.0 mg/kg/injection, schedule: Q01DX001 (ip), vehicle: carboxymethylcellulose (CMC)
[11] = dose: 100.0 mg/kg/injection, schedule: Q01DX001 (ip), vehicle: saline
[12] = dose: 200.0 mg/kg/injection, schedule: Q01DX001 (ip), vehicle: saline
[13] = dose: 50.0 mg/kg/injection, schedule: Q04DX003 (ip), vehicle: carboxymethylcellulose (CMC)
[14] = dose: 100.0 mg/kg/injection, schedule: Q04DX003 (ip), vehicle: carboxymethylcellulose (CMC)
[15] = dose: 100.0 mg/kg/injection, schedule: Q01DX009 (ip), vehicle: Klucel (hydroxypropylcellulose) (HPC)
[16] = dose: 100.0 mg/kg/injection, schedule: Q04DX003 (ip), vehicle: Klucel (hydroxypropylcellulose) (HPC)
[17] = dose: 200.0 mg/kg/injection, schedule: Q01DX009 (ip), vehicle: Klucel (hydroxypropylcellulose) (HPC)
[18] = dose: 200.0 mg/kg/injection, schedule: Q04DX003 (ip), vehicle: Klucel (hydroxypropylcellulose) (HPC)
[19] = dose: 400.0 mg/kg/injection, schedule: Q01DX009 (ip), vehicle: Klucel (hydroxypropylcellulose) (HPC)
[20] = dose: 400.0 mg/kg/injection, schedule: Q04DX003 (ip), vehicle: Klucel (hydroxypropylcellulose) (HPC)
[21] = dose: 400.0 mg/kg/injection, schedule: Q01DX001 (ip), vehicle: saline

Measured: T/C

c1ccc(-c2cc[s+]s2)cc1
inactive: dose: 12.5 mg/kg/injection, schedule: Q01DX009 (ip), vehicle: water 95 % of control | dose: 12.5 mg/kg/injection, schedule: Q04DX003 (ip), vehicle: water 98 % of control | dose: 25.0 mg/kg/injection, schedule: Q01DX009 (ip), vehicle: water 91 % of control | dose: 25.0 mg/kg/injection, schedule: Q04DX003 (ip), vehicle: water 96 % of control | dose: 50.0 mg/kg/injection, schedule: Q01DX009 (ip), vehicle: water 98 % of control | dose: 50.0 mg/kg/injection, schedule: Q04DX003 (ip), vehicle: water 109 % of control

C=CCc1ccc(OC(=O)Nc2ccccc2Cl)c(OC)c1
inactive: [1] 96 % of control | [2] 96 % of control | [3] 92 % of control

CC(=O)NCC(S)c1ccc(Cl)cc1 (configuration not stated)
inactive: [4] 103 % of control | [5] 112 % of control | [6] 103 % of control | dose: 200.0 mg/kg/injection, schedule: Q04DX003 (ip), vehicle: saline with Tween-80 93 % of control | [7] 103 % of control | dose: 400.0 mg/kg/injection, schedule: Q04DX003 (ip), vehicle: saline with Tween-80 88 % of control

Cc1cc(OC(=O)Nc2ccccc2C(F)(F)F)cc(C)c1Cl
inactive: [4] 109 % of control | dose: 100.0 mg/kg/injection, schedule: Q04DX002 (ip), vehicle: saline with Tween-80 91 % of control | [6] 102 % of control | dose: 200.0 mg/kg/injection, schedule: Q04DX002 (ip), vehicle: saline with Tween-80 95 % of control | dose: 400.0 mg/kg/injection, schedule: Q04DX002 (ip), vehicle: saline with Tween-80 98 % of control

Nc1cccc2c1[nH]c(=O)c1ccccc12
inactive: [8] 95 % of control | [9] 97 % of control | [10] 97 % of control

CCOC(=O)C1CCNC(=O)C1=O (configuration not stated)
inactive: dose: 50.0 mg/kg/injection, schedule: Q01DX001 (ip), vehicle: saline 104 % of control | [11] 101 % of control | [12] 97 % of control

O=C(Nc1ccc(Nc2ccccc2)cc1)Nc1ccccc1C(F)(F)F
inactive: dose: 50.0 mg/kg/injection, schedule: Q01DX001 (ip), vehicle: carboxymethylcellulose (CMC) 95 % of control | [13] 100 % of control | [8] 105 % of control | dose: 100.0 mg/kg/injection, schedule: Q01DX009 (ip), vehicle: carboxymethylcellulose (CMC) 88 % of control | dose: 100.0 mg/kg/injection, schedule: Q04DX002 (ip), vehicle: carboxymethylcellulose (CMC) 102 % of control and 106 % of control | [14] 93 % of control | [9] 92 % of control | dose: 200.0 mg/kg/injection, schedule: Q01DX009 (ip), vehicle: carboxymethylcellulose (CMC) 86 % of control and 92 % of control | dose: 200.0 mg/kg/injection, schedule: Q04DX002 (ip), vehicle: carboxymethylcellulose (CMC) 94 % of control and 97 % of control | dose: 400.0 mg/kg/injection, schedule: Q01DX009 (ip), vehicle: carboxymethylcellulose (CMC) 92 % of control | dose: 400.0 mg/kg/injection, schedule: Q04DX002 (ip), vehicle: carboxymethylcellulose (CMC) 94 % of control and 92 % of control

CC(=O)OCC12CCC(O1)C1C(=O)OC(=O)C12 (configuration not stated)
inactive: [15] 91 % of control | [16] 97 % of control | [17] 88 % of control | [18] 98 % of control | [19] 93 % of control | [20] 90 % of control

CC(=O)Oc1ccc2c(c1N=NN(C)C)CCC1C2CCC2(C)C(=O)CCC12 (configuration not stated)
inactive: dose: 100.0 mg/kg/injection, schedule: Q01DX001 (ip), vehicle: Klucel (hydroxypropylcellulose) (HPC) 98 % of control | dose: 200.0 mg/kg/injection, schedule: Q01DX001 (ip), vehicle: Klucel (hydroxypropylcellulose) (HPC) 104 % of control

CNC(=O)OCC1=CC(=O)C(OC)=CC1=O
inactive: dose: 0.37 mg/kg/injection, schedule: Q01DX009 (ip), vehicle: Klucel (hydroxypropylcellulose) (HPC) 91 % of control | dose: 0.75 mg/kg/injection, schedule: Q01DX009 (ip), vehicle: Klucel (hydroxypropylcellulose) (HPC) 98 % of control | dose: 12.5 mg/kg/injection, schedule: Q04DX003 (ip), vehicle: Klucel (hydroxypropylcellulose) (HPC) 92 % of control | dose: 25.0 mg/kg/injection, schedule: Q01DX009 (ip), vehicle: Klucel (hydroxypropylcellulose) (HPC) 88 % of control | dose: 25.0 mg/kg/injection, schedule: Q04DX003 (ip), vehicle: Klucel (hydroxypropylcellulose) (HPC) 103 % of control

CC1CC(C(C)CC(=O)O)C(=O)O1 (configuration not stated)
inactive: [11] 102 % of control | dose: 100.0 mg/kg/injection, schedule: Q04DX003 (ip), vehicle: saline 111 % of control | [12] 95 % of control | dose: 200.0 mg/kg/injection, schedule: Q04DX003 (ip), vehicle: saline 108 % of control | [21] 97 % of control | dose: 400.0 mg/kg/injection, schedule: Q04DX003 (ip), vehicle: saline 101 % of control

CC(=O)CSc1nc2ccccc2s1
inactive: dose: 50.0 mg/kg/injection, schedule: Q01DX009 (ip), vehicle: Klucel (hydroxypropylcellulose) (HPC) 95 % of control | [15] 104 % of control | [17] 111 % of control

CC[Si](C)(C)N1CC1
inactive: dose: 12.5 mg/kg/injection, schedule: Q01DX001 (ip), vehicle: carboxymethylcellulose (CMC) 106 % of control | dose: 25.0 mg/kg/injection, schedule: Q01DX001 (ip), vehicle: carboxymethylcellulose (CMC) 101 % of control | [13] 94 % of control | [14] 101 % of control | dose: 200.0 mg/kg/injection, schedule: Q04DX003 (ip), vehicle: carboxymethylcellulose (CMC) 101 % of control

COc1cc([N+](=O)[O-])c2[nH]c(=O)ccc2c1
inactive: [8] 97 % of control | [9] 94 % of control | [10] 97 % of control

COc1ccc(-c2cc(-c3ccccc3)c3ccccc3n2)c(OC)c1OC
inactive: [15] 100 % of control | [17] 90 % of control | [19] 90 % of control

CCCOC1=C(Br)C(=O)c2ccccc2C1=O
inactive: dose: 15.0 mg/kg/injection, schedule: Q01DX001 (ip), vehicle: carboxymethylcellulose (CMC) 98 % of control | dose: 30.0 mg/kg/injection, schedule: Q01DX001 (ip), vehicle: carboxymethylcellulose (CMC) 97 % of control

CC(=O)Nc1ccc(Cc2ccc(N=Cc3ccccc3)cc2)cc1
inactive: [11] 101 % of control | [12] 104 % of control | [21] 98 % of control

O=NN1CCCCC1C(=O)O (configuration not stated)
inactive: [11] 98 % of control | [12] 102 % of control

Clc1ccccc1-c1ncc2cnccn12
inactive: dose: 25.0 mg/kg/injection, schedule: Q01DX009 (ip), vehicle: saline with Tween-80 98 % of control | dose: 25.0 mg/kg/injection, schedule: Q04DX003 (ip), vehicle: saline with Tween-80 90 % of control | dose: 50.0 mg/kg/injection, schedule: Q01DX009 (ip), vehicle: saline with Tween-80 101 % of control | dose: 50.0 mg/kg/injection, schedule: Q04DX003 (ip), vehicle: saline with Tween-80 102 % of control | [4] 107 % of control | [5] 96 % of control and 92 % of control

Cc1cc(=O)cc(C)n1C
inactive: [4] 96 % of control | [6] 100 % of control | [7] 92 % of control

O=[N+]([O-])c1cc(Cl)cc2c1-c1ccc(Cl)cc1C2
inactive: [16] 98 % of control | [18] 98 % of control | [20] 98 % of control

COC(=O)C1CC(=O)N(Cc2ccccc2)C1 (configuration not stated)
inactive: [1] 89 % of control | [2] 100 % of control | [3] 92 % of control

COc1c2c(cc3c1OCO3)C13CCN(C2)C1CC(OC)C1OC13 (configuration not stated)
inactive: dose: 5.0 mg/kg/injection, schedule: Q01DX001 (ip), vehicle: other 97 % of control | dose: 10.0 mg/kg/injection, schedule: Q01DX001 (ip), vehicle: other 109 % of control | dose: 20.0 mg/kg/injection, schedule: Q01DX001 (ip), vehicle: other 97 % of control | dose: 40.0 mg/kg/injection, schedule: Q01DX001 (ip), vehicle: other 90 % of control | dose: 80.0 mg/kg/injection, schedule: Q01DX001 (ip), vehicle: other 89 % of control
